Read-outs that look alike come from different tables or passages of the source.
What was measured:
SARS-CoV-2 Mpro = SARS-CoV-2 Mpro (Severe acute respiratory syndrome coronavirus 2, UniProt P0DTD1); assay type: biochemical
SARS-CoV-2 = conditions: Vero E6 cells; cited from earlier work
[1] = target: His-tagged SARS-CoV-2 Mpro (Severe acute respiratory syndrome coronavirus 2, UniProt P0DTD1); test: Mpro inhibition in the presence of mammalian cell lysates; assay type: biochemical; conditions: 50 µM substrate, 10 min, 37 °C
human cathepsin L = human cathepsin L (Homo sapiens, UniProt P07711); test: Inhibition of human cathepsin L; assay type: biochemical; conditions: in words
human cathepsin B = human cathepsin B (Homo sapiens, UniProt P07858); test: Inhibition of human cathepsin B; assay type: biochemical; conditions: in words
[2] = Table 3, 5-halopyridin-3-yl esters, kinetic analysis as Table 2
[3] = Table 2, azapeptide nitriles, 50 µM substrate, pH 7.2, 37 °C, 60 min

human cathepsin L, sequence (P07711 114-333): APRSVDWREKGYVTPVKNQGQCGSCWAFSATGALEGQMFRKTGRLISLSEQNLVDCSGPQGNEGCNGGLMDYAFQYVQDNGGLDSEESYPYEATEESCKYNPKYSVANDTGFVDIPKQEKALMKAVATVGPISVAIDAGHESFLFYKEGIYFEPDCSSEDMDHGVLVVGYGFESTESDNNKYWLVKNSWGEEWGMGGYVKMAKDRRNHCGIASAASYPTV

Row | SMILES | k inac/K i (SARS-CoV-2 Mpro; [2]) | k inac/K i (SARS-CoV-2 Mpro; [3]) | Mpro inhibition in HEK and A549 cell lysates ([1]; inhibitor 1 μM) | other results
1 | O=C(Oc1cncc(Br)c1)c1cccc2[nH]ccc12 [Compound 18] | 24 000 M^−1 s^−1 | – | – | –
2 | CC(C)C[C@H](NC(=O)OCc1ccccc1)C(=O)N(C)N(C#N)CCC(N)=O [Compound 3] | – | 489 M⁻¹ s⁻¹ | – | –
3 | O=C(Oc1cncc(Cl)c1)c1cccc2c1CCN2 [5‐chloropyridin‐3‐yl dihydroindole‐4‐carboxylate] | – | – | – | activity against infectivity and replication of SARS-CoV-2 (SARS-CoV-2): active
4 | CC[C@H](NC(=O)OCc1ccccc1)C(=O)N[C@H](C(=O)N[C@@H](Cc1ccccc1)C(=O)N(C)N(C#N)CCC(N)=O)C(C)(C)C [Compound 8] | – | – | virtually complete inhibition | –
5 | CN(C(=O)[C@H](Cc1ccccc1)NC(=O)OCc1ccccc1)N(C#N)CCC(N)=O [Compound 4] | – | 1150 M⁻¹ s⁻¹ | – | Mpro inhibition in HEK and A549 cell lysates ([1]; inhibitor 10 μM): virtually complete inhibition
6 | CC(C)C[C@H](NC(=O)[C@@H](NC(=O)OCc1ccccc1)C(C)(C)C)C(=O)N(C)N(C#N)CCC(N)=O [Compound 5] | – | 2060 M⁻¹ s⁻¹ | – | –
7 | O=C(Oc1cncc(Cl)c1)c1cc2cc(Cl)ccc2[nH]1 [Compound 17] | 29 100 M^−1 s^−1 | – | virtually complete inhibition | cathepsin L inhibition (human cathepsin L): did not inhibit; cathepsin B inhibition (human cathepsin B): did not inhibit
8 | CN(C(=O)[C@H](Cc1ccccc1)NC(=O)[C@@H](NC(=O)OCc1ccccc1)C(C)(C)C)N(C#N)CCC(N)=O [Compound 6] | – | 36 000 M^−1 s^−1 | virtually complete inhibition | –
9 | O=C(Oc1cncc(Cl)c1)c1ccc2[nH]c3c(c2c1)CCCC3 [Compound 19] | 5620 M⁻¹ s⁻¹ | – | – | –
10 | CC[C@H](NC(=O)OCc1ccccc1)C(=O)N[C@H](C(=O)N[C@@H](CC(C)C)C(=O)N(C)N(C#N)CCC(N)=O)C(C)(C)C [Compound 7] | – | 21 400 M^−1 s^−1 | – | –
